These results are taken from patent publication US9428665B2, “Photopolymerizable inkjet ink, ink cartridge, and inkjet recording device” (Ricoh Company, Ltd., priority 2011, dated 2016).

Where two headings read alike, the source gives them in different places.

The conditions of data set [1]: cited from earlier work.
For data set [2] the following is noted: test method: the maximization method; cited from earlier work.
In data set [3] the test system is female mice. Briefly: Skin sensitization test based on the LLNA (Local Lymph Node Assay), SI value by BrdU intake. Format: in vivo. As to conditions: test substance 50.0 w/v % in acetone:olive oil 4:1, 25 μL/auricle once/day × 3 days, SI less than 3 = negative for skin sensitization. The source says: Here, the photopolymerizable monomer negative for skin sensitization refers to at least one of the following compounds (1) to (3): • (1) a compound having a Stimulation Index (SI value) of less than 3, where the Stimulation Index indicates the extent of sensitization as measured by a skin sensitization test based on the LLNA (Local Lymph Node Assay); • (2) a compound evaluated as “negative for skin sensitization” or “no skin sensitization” in its MSDS (Material Safety Data Sheet); and • (3) a compound evaluated as “negative for skin sensitization” or “without skin sensitization” in literature [e.g., Contact Dermatitis 8 223-235 (1982)]. […]
According to the skin sensitization test based on the LLNA (Local Lymph Node Assay), the SI value was measured in the below described manner. […]
Before treated with the test substances, the positive control or the vehicle control, female mice were acclimated for 8 days including 6-day quarantine. […] Based on the body weights measured 2 days before the initiation of sensitization, they were categorized into 2 groups (4 mice/group) by the body weight stratified random sampling method so that the body weight of each individual was within ±20% of the average body weight of all the individuals. […]

For data set [4] the following is noted: in vivo; cited from earlier work.
Where [5] appears, read: test method: OECD test guideline 406.

In the case of `CCC(Cc1ccc(C)cc1)(C(=O)c1ccc(N2CCOCC2)cc1)N(C)C` (centres unmarked) [Example C1, 2-Dimethylamino-2-(4-methylbenzyl)-1-(4-morpholin-4-yl-phenyl) butan-1-one], the “skin sensitization evaluated in the MSDS” value in data set [1] (setting [5]) is “none”. Regarding `C=COCCOCCOCCOC=C` [Example B1, Triethylene glycol divinyl ether], the “skin sensitization evaluated in the MSDS” value in data set [1] (setting [5]) was “negative”.

For “Caprolactone-modified dipentaerythritol hexaacrylate [DPCA-60]”, the “skin sensitization evaluated in the MSDS” value in data set [1] (in vivo) was “negative”. Consider `CSc1ccc(C(=O)C(C)(C)N2CCOCC2)cc1` [Example C2, 2-Methyl-1-[4-(methylthio)phenyl]-2-morpholinopropan-1-one], for which the “skin sensitization evaluated in the MSDS” value in data set [1] (setting [5]) was “none”.

With `C=C(C)C(=O)OCCCCC` [n-AMYL METHACRYLATE, n-Pentyl methacrylate], in data set [2], the “skin sensitization evaluated in the literature” value is on record as “negative”. As for `CCc1cc(CC)c2sc3ccccc3c(=O)c2c1` [2,4-Diethylthioxanthone], the “SI value (Stimulation Index)” value in data set [3] is on record as 1.4.

As to `CCC(Cc1ccccc1)(C(=O)c1ccc(N2CCOCC2)cc1)N(C)C` (centres unmarked) [Example C3, 2-Benzyl-2-dimethylamino-1-(4-morpholinophenyl)butanone-1], the “skin sensitization evaluated in the MSDS” value in data set [1] (setting [5]) is listed as “none”. Consider `CCCCC(CC)COC(=O)c1ccc(N(C)C)cc1` (centres unmarked) [2-ethylhexyl p-dimethylaminobenzoate], for which the “skin sensitization evaluated in the MSDS” value in data set [1] (setting [5]) is given as “none”. For `C=C(C)C(=O)OC(C)(C)C` [LIGHT ESTER TB, t-Butyl methacrylate], the “skin sensitization evaluated in the literature” value in data set [2] was “negative”. `C=C(C)C(=O)OCCCCCC` [HEXYL METHACRYLATE, n-Hexyl methacrylate]: the “skin sensitization evaluated in the literature” value in data set [2] was “negative”. `C=CC(=O)NCCO` [HEAA, Hydroxyethylacryl amide]: the “skin sensitization evaluation (MSDS or literature)” value in data set [4] is recorded as “none”.
